# Experiments:
# [1] = target: wild type PRC2 (wtPRC2) complex (Homo sapiens (Human), UniProt O75530); assay: EED LC-MS assay; assay type: biochemical; details: EED LC-MS Qualified assay; read-out: (b) IC50
# Method: EED LC-MS Assay Representative compounds of the present invention were serially and separately diluted 3-fold in DMSO to obtain a total of eight or twelve concentrations. […] A 6 μL solution of 3 μM of the peptide substrate H3K27Me0 (histone H3[21-44]-biotin) in reaction buffer was added to initiate each reaction. […] The data were then fit to a dose response equation using the program Helios to get the IC50 values of the test compound.
# [2] = test system: H3K27 methylation in G401 cell; assay: ELISA (H3K27 methylation) assay; assay type: cell-based; details: Homo sapiens, G-401, ELISA Qualified assay, 48 h, read-out: (c) IC50
# Method: ELISA (H3K27 Methylation) Assay
# Representative compounds of the present invention were serially and separately diluted 3-fold in DMSO to obtain a total of eight or twelve concentrations. Then the compounds were added to G401 cell cultured in 384-well plate at 1:500 dilution to obtain the highest concentration of 20 μM. The cells were further cultured for 48 h before ELISA procedure.
# ELISA protocol: Cell lysates were transferred to the wells of a 384-well plate and the final volume was adjusted to 50 μL per well with PBS. The plate was sealed, centrifuged at 2,000 rpm for 2 min and incubated at 4° C. for about 16 h. The plate was washed with TBST buffer (1×TBS (10×TBS: 24.2 g Tris (Sigma, T6066), 80 g NaCl (Sigma, S3014) to 1 L of water and adjust pH to 7.6 with HCl) with 0.1% Tween-20). Blocking buffer (TBST, 5% BSA; 50 μL per well) was added and the plate was incubated for 1 h at rt. The blocking buffer was removed and primary antibody was added (30 μL per well). […] The primary antibody was incubated in the plate at rt for 1 h. The wells were washed with TBST and incubated with secondary antibody for 1 h at rt. […] After 1 h of incubation at rt, the wells were washed with TBST. […] The signal was read using a PerkinElmer Envision Reader. The H3K27 methylation readouts were normalized using H3 signal and then percentage inhibition was calculated against the samples treated with DMSO. The data were then fit to a dose response curve using the program Helios to get the IC50 values of the test compound.
# [3] = target: EED (1-441)-His protein (Homo sapiens (Human), UniProt O75530); assay: EED-H3K27Me3 peptide competition binding assay by AlphaScreen; details: EED Alphascreen binding Qualified assay
# Chain of EED (1-441)-His protein (O75530 whole entry): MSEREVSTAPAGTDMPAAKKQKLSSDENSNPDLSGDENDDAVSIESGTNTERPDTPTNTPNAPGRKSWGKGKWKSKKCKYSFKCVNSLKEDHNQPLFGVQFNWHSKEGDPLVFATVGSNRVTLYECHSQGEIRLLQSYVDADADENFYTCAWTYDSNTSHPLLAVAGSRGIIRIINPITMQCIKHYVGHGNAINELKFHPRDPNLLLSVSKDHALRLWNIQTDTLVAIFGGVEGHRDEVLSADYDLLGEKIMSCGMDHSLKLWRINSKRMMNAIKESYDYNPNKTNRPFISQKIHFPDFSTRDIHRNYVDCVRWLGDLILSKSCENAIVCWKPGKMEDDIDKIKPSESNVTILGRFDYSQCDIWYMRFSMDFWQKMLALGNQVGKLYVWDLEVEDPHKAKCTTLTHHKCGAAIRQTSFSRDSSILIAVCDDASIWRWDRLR
# Method: Then 4 μL of detection beads mix was added to the plate and incubate in the dark at the rt for 1 h. The final concentration of donor and acceptor beads was 10 μg/mL for each. […] The data were then fit to a dose response equation using the program Helios (Novartis) to get the IC50 values. […] Sebaugh, J. […] Each compound was counter screened to determine if it interfered with the AlphaScreen beads. […] The plates were then incubated for 1 h at rt in dark before being read on EnVison.
# Chain of wild type PRC2 (wtPRC2) complex (O75530 whole entry): as above
# Chain of wild type PRC2 (wtPRC2) complex (Q15910 whole entry partner): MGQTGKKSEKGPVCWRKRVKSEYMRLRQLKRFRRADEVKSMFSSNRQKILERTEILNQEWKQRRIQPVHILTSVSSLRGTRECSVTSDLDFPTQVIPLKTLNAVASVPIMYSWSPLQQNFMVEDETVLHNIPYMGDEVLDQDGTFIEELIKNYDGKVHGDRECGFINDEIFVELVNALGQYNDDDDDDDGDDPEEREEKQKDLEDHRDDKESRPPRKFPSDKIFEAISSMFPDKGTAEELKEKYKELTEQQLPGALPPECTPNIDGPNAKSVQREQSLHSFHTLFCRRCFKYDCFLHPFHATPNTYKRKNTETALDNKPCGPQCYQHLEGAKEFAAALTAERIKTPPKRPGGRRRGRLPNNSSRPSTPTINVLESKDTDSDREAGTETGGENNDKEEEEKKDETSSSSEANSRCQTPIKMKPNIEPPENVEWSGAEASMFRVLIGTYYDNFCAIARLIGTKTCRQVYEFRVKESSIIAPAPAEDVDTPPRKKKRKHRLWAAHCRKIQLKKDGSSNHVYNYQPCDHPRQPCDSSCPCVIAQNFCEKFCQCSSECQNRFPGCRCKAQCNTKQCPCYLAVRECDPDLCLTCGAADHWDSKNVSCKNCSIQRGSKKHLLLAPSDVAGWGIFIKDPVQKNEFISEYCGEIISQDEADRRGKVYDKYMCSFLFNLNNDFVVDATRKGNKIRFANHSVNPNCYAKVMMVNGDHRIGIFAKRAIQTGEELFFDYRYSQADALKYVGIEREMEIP
# Chain of wild type PRC2 (wtPRC2) complex (Q15022 whole entry partner): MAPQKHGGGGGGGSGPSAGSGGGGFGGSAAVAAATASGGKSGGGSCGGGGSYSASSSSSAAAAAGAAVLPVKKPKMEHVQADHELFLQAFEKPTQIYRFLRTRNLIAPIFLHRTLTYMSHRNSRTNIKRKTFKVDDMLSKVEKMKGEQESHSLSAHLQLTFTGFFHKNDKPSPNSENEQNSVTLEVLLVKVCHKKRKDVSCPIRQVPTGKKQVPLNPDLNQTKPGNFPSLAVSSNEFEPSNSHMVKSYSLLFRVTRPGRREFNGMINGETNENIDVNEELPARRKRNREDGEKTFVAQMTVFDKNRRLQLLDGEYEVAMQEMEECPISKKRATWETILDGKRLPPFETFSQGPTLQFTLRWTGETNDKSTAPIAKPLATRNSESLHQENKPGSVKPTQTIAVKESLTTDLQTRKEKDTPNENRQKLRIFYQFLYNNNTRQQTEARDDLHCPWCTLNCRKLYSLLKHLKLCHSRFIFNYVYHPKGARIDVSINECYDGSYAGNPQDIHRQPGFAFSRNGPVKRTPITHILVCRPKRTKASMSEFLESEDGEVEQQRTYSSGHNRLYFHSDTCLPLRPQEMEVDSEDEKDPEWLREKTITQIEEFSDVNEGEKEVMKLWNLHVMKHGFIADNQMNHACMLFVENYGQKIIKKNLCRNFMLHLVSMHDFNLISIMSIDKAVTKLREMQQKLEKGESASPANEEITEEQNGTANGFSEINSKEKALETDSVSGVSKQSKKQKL
SMILES,IC50 [1],IC50 [2],IC50 [3]
"CS(=O)(=O)c1ccc(-c2cnc(NCc3c(F)ccc4c3CCO4)n3cncc23)cc1 [Example 19, N-((5-fluoro-2,3-dihydrobenzofuran-4-yl)methyl)-8-(4-(methylsulfonyl)phenyl)imidazo[1,5-c]pyrimidin-5-amine]",0.0104 µM,0.0601 µM,0.0085 µM
"N#Cc1ncn2c(NCc3c(F)ccc4c3CCO4)ncc(-c3cccnc3)c12 [Example 74, 5-(((5-fluoro-2,3-dihydrobenzofuran-4-yl)methyl)amino)-8-(pyridin-3-yl)imidazo[1,5-c]pyrimidine-1-carbonitrile]",0.0156 µM,0.007 µM,0.0059 µM
"Cc1ccc(-c2cnc(NCc3c(F)ccc4c3CCO4)n3cncc23)c(C)n1 [Example 43, 8-(2,6-dimethylpyridin-3-yl)-N-((5-fluoro-2,3-dihydrobenzofuran-4-yl)methyl)imidazo[1,5-c]pyrimidin-5-amine]",0.0126 µM,0.0509 µM,0.0103 µM
"Cc1cc(C(=O)N(C)C)ncc1-c1cnc(NCc2c(F)ccc3c2CCO3)n2cncc12 [Example 54, 5-(5-(((5-fluoro-2,3-dihydrobenzofuran-4-yl)methyl)amino)imidazo[1,5-c]pyrimidin-8-yl)-N,N,4-trimethylpicolinamide]",0.0126 µM,0.0081 µM,0.0044 µM
"Cc1cc(-c2cnc(NCc3c(F)ccc4c3CCO4)n3cncc23)ccc1S(C)(=O)=O [Example 48, N-((5-fluoro-2,3-dihydrobenzofuran-4-yl)methyl)-8-(3-methyl-4-(methylsulfonyl)phenyl)imidazo[1,5-c]pyrimidin-5-amine]",0.0164 µM,0.0341 µM,0.0105 µM
"Cc1ncc(-c2cnc(NCc3c(F)ccc4c3CCO4)n3cncc23)cn1 [Example 50, N-((5-fluoro-2,3-dihydrobenzofuran-4-yl)methyl)-8-(2-methylpyrimidin-5-yl)imidazo[1,5-c]pyrimidin-5-amine]",0.0162 µM,0.0742 µM,0.0071 µM
"Cc1cc(-c2cnc(NCc3c(F)ccc4c3CCO4)n3cnc(C#N)c23)n(C)n1 [Example 5, 8-(1,3-Dimethyl-1H-pyrazol-5-yl)-5-(((5-fluoro-2,3-dihydrobenzofuran-4-yl)methyl)amino)imidazo[1,5-c]pyrimidine-1-carbonitrile]",0.0089 µM,0.0032 µM,0.0035 µM
"Fc1ccc2c(c1CNc1ncc(-c3cccnc3F)c3cncn13)CCO2 [Example 21, N-((5-fluoro-2,3-dihydrobenzofuran-4-yl)methyl)-8-(2-fluoropyridin-3-yl)imidazo[1,5-c]pyrimidin-5-amine]",0.0217 µM,0.0354 µM,0.0195 µM
"Cc1nn(C)c(C)c1-c1cnc(NCc2c(F)ccc3c2CCO3)n2cncc12 [Example 46, N-((5-fluoro-2,3-dihydrobenzofuran-4-yl)methyl)-8-(1,3,5-trimethyl-1H-pyrazol-4-yl)imidazo[1,5-c]pyrimidin-5-amine]",0.0228 µM,0.112 µM,0.0184 µM
"Cc1nn(CCO)c(C)c1-c1cnc(NCc2c(F)ccc3c2CCO3)n2cncc12 [Example 49, 2-(4-(5-(((5-fluoro-2,3-dihydrobenzofuran-4-yl)methyl)amino)imidazo[1,5-c]pyrimidin-8-yl)-3,5-dimethyl-1H-pyrazol-1-yl)ethan-1-ol]",0.0135 µM,0.0204 µM,0.0079 µM
"Cc1ncccc1-c1cnc(NCc2c(F)ccc3c2CCO3)n2cnc(-c3ccccc3)c12 [Example 111, N-((5-fluoro-2,3-dihydrobenzofuran-4-yl)methyl)-8-(2-methylpyridin-3-yl)-1-phenylimidazo[1,5-c]pyrimidin-5-amine]",0.0096 µM,0.0238 µM,0.0076 µM
"N#Cc1ncn2c(NCc3c(F)ccc4c3CCO4)ncc(-c3cccnc3C(F)F)c12 [Example 73, 8-(2-(difluoromethyl)pyridin-3-yl)-5-(((5-fluoro-2,3-dihydrobenzofuran-4-yl)methyl)amino)imidazo[1,5-c]pyrimidine-1-carbonitrile]",0.0564 µM,0.0553 µM,0.0235 µM
"CN(C)Cc1ccc(-c2cnc(NCc3cccc4occc34)n3cncc23)cc1 [Example 64, N-(benzofuran-4-ylmethyl)-8-(4-((dimethylamino)methyl)phenyl)imidazo[1,5-c]pyrimidin-5-amine]",0.0547 µM,0.403 µM,0.0554 µM
"Cc1cn(-c2cnc(NCc3c(F)ccc4c3CCO4)n3cnc(C#N)c23)cn1 [Example 6, 5-(((5-Fluoro-2,3-dihydrobenzofuran-4-yl)methyl)amino)-8-(4-methyl-1H-imidazol-1-yl)imidazo[1,5-c]pyrimidine-1-carbonitrile]",0.0125 µM,0.0031 µM,0.0042 µM
"CS(=O)(=O)c1ncn2c(NCc3c(F)ccc4c3CCO4)ncc(-c3cccnc3)c12 [Example 102, N-((5-fluoro-2,3-dihydrobenzofuran-4-yl)methyl)-1-(methylsulfonyl)-8-(pyridin-3-yl)imidazo[1,5-c]pyrimidin-5-amine]",0.017 µM,0.0024 µM,0.0069 µM
"COc1cccc(F)c1CNc1ncc(-c2cccnc2C)c2c(C#N)ncn12 [Example 90, 5-((2-fluoro-6-methoxybenzyl)amino)-8-(2-methylpyridin-3-yl)imidazo[1,5-c]pyrimidine-1-carbonitrile]",0.0568 µM,0.337 µM,0.139 µM
"CS(=O)(=O)Nc1ccc(-c2cnc(NCc3c(F)ccc4c3CCO4)n3cncc23)cc1 [Example 29, N-(4-(5-(((5-fluoro-2,3-dihydrobenzofuran-4-yl)methyl)amino)imidazo[1,5-c]pyrimidin-8-yl)phenyl)methanesulfonamide]",0.0329 µM,0.0734 µM,0.0375 µM
"Cc1nc(C(=O)N(C)C)ccc1-c1cnc(NCc2c(F)ccc3c2CCO3)n2cncc12 [Example 63, 5-(5-(((5-fluoro-2,3-dihydrobenzofuran-4-yl)methyl)amino)imidazo[1,5-c]pyrimidin-8-yl)-N,N,6-trimethylpicolinamide]",0.0267 µM,0.0618 µM,0.0095 µM
"Cc1ccc(-c2ncn3c(NCc4c(F)ccc5c4CCO5)ncc(-c4cnc(C)nc4C)c23)c(C)n1 [Example 113, 1-(2,6-dimethylpyridin-3-yl)-8-(2,4-dimethylpyrimidin-5-yl)-N-((5-fluoro-2,3-dihydrobenzofuran-4-yl)methyl)imidazo[1,5-c]pyrimidin-5-amine]",0.0389 µM,0.0531 µM,0.0152 µM
"Cc1ncccc1-c1cnc(NCc2c(F)ccc3c2CCO3)n2cnc(C(=O)NC3COC3)c12 [Example 106, 5-(((5-fluoro-2,3-dihydrobenzofuran-4-yl)methyl)amino)-8-(2-methylpyridin-3-yl)-N-(oxetan-3-yl)imidazo[1,5-c]pyrimidine-1-carboxamide]",0.0165 µM,0.0109 µM,–
"CCOC(=O)c1ncn2c(NCc3c(F)ccc4c3CCO4)ncc(-c3cccnc3C)c12 [Example 95, ethyl 5-(((5-fluoro-2,3-dihydrobenzofuran-4-yl)methyl)amino)-8-(2-methylpyridin-3-yl)imidazo[1,5-c]pyrimidine-1-carboxylate]",–,0.002 µM,0.0055 µM
"CS(=O)(=O)c1ccc(-c2cnc(NCc3c(F)ccc4c3CCO4)n3cnc(-c4ccccc4)c23)cc1 [Example 110, N-((5-fluoro-2,3-dihydrobenzofuran-4-yl)methyl)-8-(4-(methylsulfonyl)phenyl)-1-phenylimidazo[1,5-c]pyrimidin-5-amine]",0.0094 µM,0.0722 µM,–
"COc1cccc(F)c1CNc1ncc(-c2ccc(CN(C)C)cc2)c2cncn12 [Example 68, 8-(4-((dimethylamino)methyl)phenyl)-N-(2-fluoro-6-methoxybenzyl)imidazo[1,5-c]pyrimidin-5-amine]",0.246 µM,–,0.201 µM
"CCN1CCN(c2ccc(-c3cnc(NCc4c(F)ccc5c4CCO5)n4cnc(C#N)c34)cn2)CC1 [Example 81, 8-(6-(4-ethylpiperazin-1-yl)pyridin-3-yl)-5-(((5-fluoro-2,3-dihydrobenzofuran-4-yl)methyl)amino)imidazo[1,5-c]pyrimidine-1-carbonitrile]",0.0351 µM,0.0148 µM,–

# From patent US10676479B2, “Imidazolepyridine compounds and uses thereof” (Novartis AG, priority 2016, dated 2020)
